Measured values published in patent US4353919A, “Analgesic and antipyretic pharmaceutical compositions containing a benzothiazol-2(3H)-one” (Dr. Karl Thomae Gesellschaft mit beschrankter Haftung, priority 1980, dated 1982).

Key:
Format in all cases: in vivo
Acute toxicity in mice = conditions: mouse, in vivo; Chbb:NMRI (SPF)-mice of both sexes, oral (esophageal tube), deaths within 14 days
Procedure: (§1) The acute toxicity was determined in Chbb:NMRI (SPF)-mice of both sexes, having an average body weight of 20 gm. The test compounds were administered as a trituration in 1% methyl cellulose (0.5 ml/10 gm of animal) by means of an esophageal tube. The calculation of the LD50 values was effected according to the method of LITCHFIELD and WILCOXON [J. Pharmacol. Exp. Ther. 96, 99 (1949)], based on the percentage of animals which died within 14 days after administration of different doses.

heat pain of the mouse = assay: Effect on the heat sensitivity of the mouse (hot plate, 52° C.); conditions: male Chbb:NMRI (SPF)-mice, oral (esophageal tube), dose increasing time of reaction by 100%
Procedure: The test performed according to a modification of the method described by CHEN and BECKMAN [Science, 113, 631 (1951)] in male Chbb:NMRI (SPF)-mice with an average weight of 20 grams.
The test substances were administered as trituration in 1% methyl cellulose (0.1 ml/10 gm of mouse) by means of an esophageal tube. Before treatment with the test substance, the animals were twice put on the hot plate at an interval of 30 minutes, whereby their individual times of reaction were measured. After treatment with a test substance, the times of reaction of the animals were again measured in an interval of 30 minutes.
From the average maximum increase of the time of reaction obtained after treatment with different doses, and after linear regression analysis according to LINDER, an ED100 dose with the confidence limits according to FIELLER was calculated. The ED100 dose is one which increased the time of reaction by 100%.

[1] = test system: body temperature of the rat; assay: Effect on the body temperature of the rat (antipyretic activity); conditions: Chbb:THOM-rats, oral (esophageal tube), dose decreasing rectal body temperature by 1.5° C.
Procedure: The temperature-lowering activity, i.e. antipyretic activity, was tested by the observation of the temperature curve given by rectally measured body temperatures of partially immobilized Chbb:THOM-rats having body weights of between 125 and 150 grams. The body temperatures were measured by thermocouples inserted into rectums. The test substances were administered as a trituration in a 1% methyl cellulose in portions of 1.0 ml/100 gm of animal using an esophageal tube.
From the values for the average maximum decline of temperature, which were gained after the administration of the different doses of the test substance, and after a linear regression analysis according to LINDER, an ED-1.5° C. was calculated with the confidence limits according to FIELLER as the dose which decreases the body temperature by 1.5° C.

[2] = test system: inflammation pain of the rat; assay: Effect on the inflammation pain of the rat (Randall-Selitto, yeast-injected paw); conditions: male Chbb:THOM-rats, oral (esophageal tube), dose raising pain threshold by 50% vs controls
Procedure: The test arrangement corresponded to that indicated by RANDALL-SELITTO [Arch. Int. Pharmacodyn. 111, 409 (1957)]. Male Chbb:THOM-rats having body weights of from 100 to 130 grams received a subplantar injection of 0.1 ml of a 5% suspension of yeast cells in 5.55% glucose solution in a rear paw. At 11/2 and 21/4 hours, respectively, after injection of the phlogistic, the animals received various doses of the test substance as a trituration in 1% methyl cellulose (1 ml/100 g of animal) through an esophageal tube. Control animals received corresponding volumes of the vehicle.
Ninety and forty-five minutes, respectively, after application of the test substance (that is, three hours after the subplantar injection of the yeast suspension), the threshold pain was determined in the rat in terms of the […] of bearing pressure on a paw, based on the weight of the animals.
From the pain threshold, measured according to the different doses of the test substance, and with the linear regression analysis according to LINDER [Statistische Methoden, 4th ed., pp. 148-162, Birkhauser, Basel, 1964], and ED50 dose with the confidence limits according to FIELLER [Quart. J. Pharm. Pharmacol., 17, 117 (1944)] was determined. The ED50 dose is one in which the pain threshold rises by 50%, as compared to the controls.

mice = assay: Acute toxicity in mice; conditions: oral, mice, 14 days
Procedure: as §1

[3] = 0.75 h, After Forty-five Minutes

| SMILES | LD50 at 336 h (Acute toxicity in mice) | ED100 (heat pain of the mouse) | ED (-1.5 C) [1] | ED50 [2, 3] | ED50 ([2]; 1.5 h, After Ninety Minutes) | survival of animals after administration of this dose (mice; 10000 mg/kg (footnote * of Table 5)) | animals died after administration of this dose (mice; 8000 mg/kg (footnote ** of Table 5)) |
| --- | --- | --- | --- | --- | --- | --- | --- |
| COc1ccc2sc(=O)[nH]c2c1 [A, 5-methoxy-benzothiazol-2(3H)-one] | 1600 mg/kg | 218 mg/kg | 58 mg/kg | 90 mg/kg | 150 mg/kg |  |  |
| O=c1[nH]c2ccc(F)cc2s1 [B, 6-fluoro-benzothiazol-2(3H)-one] | 1650 mg/kg | 165 mg/kg | 83 mg/kg | 121 mg/kg | 76 mg/kg |  |  |
| O=c1[nH]c2cccc(Cl)c2s1 [C, 7-chloro-benzothiazol-2(3H)-one] | 10000 mg/kg |  |  | 106 mg/kg | 105 mg/kg | all 10 animals survived |  |
| O=c1[nH]c2ccc(Cl)cc2s1 [D, 6-chloro-benzothiazol-2(3H)-one] |  |  | 103 mg/kg | 175 mg/kg | 129 mg/kg |  |  |
| COc1cc2[nH]c(=O)sc2cc1OC [E, 5,6-dimethoxy-benzothiazol-2(3H)-one] |  | 92 mg/kg | 29 mg/kg | 43 mg/kg | 40 mg/kg |  |  |
| Cc1cccc2sc(=O)[nH]c12 [F, 4-methyl-benzothiazol-2(3H)-one] | 8000 mg/kg | 113 mg/kg | 118 mg/kg | 174 mg/kg | 202 mg/kg |  | 4 out of 20 animals died |
| Cc1ccc2sc(=O)[nH]c2c1 [G, 5-methyl-benzothiazol-2(3H)-one] | 2650 mg/kg | 178 mg/kg | 37 mg/kg | 103 mg/kg | 97 mg/kg |  |  |
| O=c1[nH]c2c(Cl)cccc2s1 [H, 4-chloro-benzothiazol-2(3H)-one] |  | 125 mg/kg | 16 mg/kg | 24 mg/kg | 23 mg/kg |  |  |
